Data published in BindingDB's records for PubMed 11303056 (Kissei Pharmaceutical, 2001).

What was measured:
[1] = biological target: Beta-3 adrenergic receptor (Homo sapiens, UniProt P13945)
[2] = biological target: Beta-2 adrenergic receptor (Homo sapiens, UniProt P07550)
Beta-2 adrenergic receptor, sequence (P07550 whole entry): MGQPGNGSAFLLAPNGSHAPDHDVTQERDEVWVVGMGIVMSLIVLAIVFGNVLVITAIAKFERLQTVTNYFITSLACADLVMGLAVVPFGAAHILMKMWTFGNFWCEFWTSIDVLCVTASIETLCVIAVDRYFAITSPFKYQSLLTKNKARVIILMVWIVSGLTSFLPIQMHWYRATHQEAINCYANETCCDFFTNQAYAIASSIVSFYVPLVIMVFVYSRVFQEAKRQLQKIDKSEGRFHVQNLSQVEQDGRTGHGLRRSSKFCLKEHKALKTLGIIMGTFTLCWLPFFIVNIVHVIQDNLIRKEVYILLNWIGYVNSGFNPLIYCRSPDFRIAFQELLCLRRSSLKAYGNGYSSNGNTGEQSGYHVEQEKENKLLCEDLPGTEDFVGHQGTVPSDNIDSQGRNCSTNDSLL

Beta-3 adrenergic receptor, sequence (P13945 whole entry): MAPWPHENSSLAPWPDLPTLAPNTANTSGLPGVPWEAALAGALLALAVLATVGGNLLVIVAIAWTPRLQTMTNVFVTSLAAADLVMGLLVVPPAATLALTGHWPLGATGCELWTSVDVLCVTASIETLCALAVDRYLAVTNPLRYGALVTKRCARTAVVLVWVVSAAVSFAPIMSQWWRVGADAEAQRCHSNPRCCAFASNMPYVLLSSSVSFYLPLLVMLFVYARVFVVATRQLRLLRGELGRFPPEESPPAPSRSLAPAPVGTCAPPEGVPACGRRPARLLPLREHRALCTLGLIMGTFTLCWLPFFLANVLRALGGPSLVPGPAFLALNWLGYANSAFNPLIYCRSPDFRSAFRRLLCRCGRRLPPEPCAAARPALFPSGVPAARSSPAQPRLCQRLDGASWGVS

Ki [1]: > 10000 nM | Ki [2]: 25.7 nM
Structure (SMILES): CN(C)C(=O)COc1ccc2c(c1)C[C@@H](NC[C@H](O)c1ccc(O)c(CCO)c1)CC2 [KUR-1246]
